In US20260234139A1, “PGDH INHIBITORS AND METHODS OF MAKING AND USING” (Epirium Bio Inc., priority 2023, published 2026):

How the values were obtained:
[1] = test system: A549; assay: A549 EC50 (cell assay, method not described); format: cell-based; settings: Homo sapiens, A549, A549
[2] = target: T1, 15-PGDH/HPGD (Homo sapiens, UniProt P15428); assay: hPGDH inhibitor screening biochemical assay; settings: 10 nM enzyme, 15 μM Prostaglandin E2, 0.25 mM NAD, fluorescence ex/em 340/485 nm
T1 construct: purchased R&D System 5660-DH
T1 sequence (P15428 1-266): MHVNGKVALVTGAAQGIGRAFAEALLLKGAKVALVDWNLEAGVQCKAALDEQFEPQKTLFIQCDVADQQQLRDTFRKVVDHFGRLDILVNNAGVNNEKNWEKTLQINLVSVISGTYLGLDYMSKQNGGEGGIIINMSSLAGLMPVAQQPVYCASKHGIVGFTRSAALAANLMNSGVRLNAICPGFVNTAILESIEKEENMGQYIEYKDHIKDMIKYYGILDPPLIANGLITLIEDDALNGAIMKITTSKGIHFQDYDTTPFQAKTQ
Protocol: A hydroxyprostaglandin dehydrogenase inhibition screening biochemical assay can be performed to assess the synthesized inhibitors provided herein. Provided herein is an exemplary biochemical assay for hPGDH inhibitor screening.
The in vitro biochemical assay can be performed in white, 384 plates in total 20 μl reaction volume consisting of 10 nM of 15-PGDH/HPGD (R&D System #5660-DH), 15 μM Prostaglandin E2 (Sigma, Cat #P5640-10 MG) and 0.25 mM B-Nicotinamide adenine dinucleotide sodium salt (Sigma, Cat #N0632-5G) made in reaction buffer (50 mM Tris-HCl, pH 7.5, 0.01% Tween 20) at 10-point dose response curve for test/tool compounds. Briefly, 5 μl (4×) of compounds solution and 5 μl (final concentration, 10 nM) of enzyme solution is added to white 384 well plates and incubated for 10 mins at 37° C. 5 μl (4×) of Prostaglandin E2 and 5 μl (4×) of β-Nicotinamide adenine dinucleotide sodium salt is added to the wells and incubated for 10 mins at room temperature. Fluorescence is recorded at ex/em=340 nm/485 nm.

Row | Compound | EC50 [1] [nM] | IC50 [2] [nM]
1 | CCOC1([C@H](O)c2cnc3c(cnn3-c3cccc(-c4nnc[nH]4)c3)c2)CCC1 [Compound 83A] | 100 to 1000 | 100 to 1000
2 | CC(C)OC[C@H](O)c1cnc2c(cnn2-c2ccc(CCCC(=O)O)cc2)c1 [Compound 66B] | 100 to 1000 | 100 to 1000
3 | CC(C)NC[C@@H](O)c1cnc2c(ccn2-c2cccc(-c3nnc[nH]3)c2)n1 [Compound 22B] | ≥ 1000 | 100 to 1000
4 | CS(=O)(=O)c1ccc(-n2ncc3cc([C@H](O)COC4CCC4)cnc32)cc1 [Compound 121B] | ≥ 1000 | ≥ 1000
5 | O[C@H](c1cnc2c(cnn2-c2ccc3nc(N4CCOCC4)nn3c2)c1)C1COC1 [Compound 64A] | 100 to 1000 | 100 to 1000
6 | CSc1ccc(-n2ncc3cc([C@H](O)COC4CCC4)cnc32)cc1 [Compound 119B] | ≥ 1000 | ≥ 1000
7 | CN(C)C(=O)c1cccc(-n2ncc3cc([C@@H](O)COC4CCC4)cnc32)c1 [Compound 111A] | 100 to 1000 | < 100
8 | O[C@@H](COC1CCC1)c1cnc2c(cnn2-c2cccc(-c3nnc[nH]3)c2)c1 [Compound 24A] | 100 to 1000 | < 100
9 | CC1(C)CC(OC[C@@H](O)c2cnc3c(cnn3-c3ccc(C(=O)O)nc3)c2)C1 [Compound 116B] | ≥ 1000 | < 100
10 | Cc1cc(-n2ncc3cc([C@H](O)COC4CCC4)cnc32)ccc1C(=O)O [Compound 95B] | ≥ 1000 | 100 to 1000
11 | O[C@@H](c1cnc2c(cnn2-c2cccc(-c3nnc[nH]3)c2)c1)C1CCOCC1 [Compound 52B] | < 100 | < 100
12 | O[C@@H](COC1CC1)c1cnc2c(ccn2-c2cccc(-c3nnc[nH]3)c2)n1 [Compound 38B] | 100 to 1000 | < 100
13 | O=C(O)c1ccc(-n2ncc3cc([C@@H](O)COC4(C(F)(F)F)CCC4)cnc32)cc1 [Compound 115A] | 100 to 1000 | < 100
14 | CCOC1([C@H](O)c2cnc3c(cnn3-c3ccc(C(=O)O)cc3)c2)CCC1 [Compound 85A] | ≥ 1000 | 100 to 1000
15 | CCCC(F)(F)[C@@H](O)c1cnc2c(ccn2-c2cccc(-c3nnc[nH]3)c2)c1 [Compound 4A] | 100 to 1000 | < 100
16 | O=C(O)c1ccc(-n2ncc3cc([C@H](O)COC4(C(F)(F)F)CCC4)cnc32)cc1 [Compound 115B] | < 100 | < 100
17 | O=C(O)c1ccc(-n2ncc3cc([C@H](O)COC4CCC4)cnc32)cn1 [Compound 96A] | ≥ 1000 | < 100
18 | CCOC[C@@H](O)c1cnc2c(cnn2-c2cccc(-c3nnc[nH]3)c2)c1 [Compound 23B] | < 100 | < 100
19 | COC(C)(C)CC[C@@H](O)c1cnc2c(cnn2-c2cccc(-c3nnc[nH]3)c2)c1 [Compound 55B] | < 100 | < 100
20 | CCCC[C@@H](O)c1cnc2c(ccn2-c2cc(Cl)cc(-c3nnc[nH]3)c2)c1 [Compound 17A] | < 100 | < 100
21 | COC1([C@H](O)c2cnc3c(cnn3-c3cccc(-c4nnc[nH]4)c3)c2)CC1 [Compound 59B] | ≥ 1000 | 100 to 1000
22 | CCCCC(C)(O)c1cnc2c(ccn2-c2cc(Cl)cc(-c3nnc[nH]3)c2)c1 (centres unmarked) [Compound 15] | ≥ 1000 | 100 to 1000
23 | Cc1nn(-c2ccc(C(=O)O)cc2)c2ncc([C@@H](O)COC3CCC3)cc12 [Compound 109A] | ≥ 1000 | < 100
24 | O[C@@H](COC1CCC1)c1cnc2c(ccn2-c2cccc(-c3nnc[nH]3)c2)n1 [Compound 30B] | < 100 | < 100
25 | O[C@H](COC1CCC1)c1cnc2c(cnn2-c2ccc(N3CCCC3)cc2)c1 [Compound 75A] | 100 to 1000 | 100 to 1000

Row | Compound | EC50 [1] [nM] | IC50 [2] [nM]
26 | CSc1cccc(-n2ncc3cc([C@@H](O)COC4CCC4)cnc32)c1 [Compound 122A] | ≥ 1000 | < 100
27 | CC(C)OCC(O)c1cnc2c(cnn2-c2cccc(-c3nnc[nH]3)c2)c1 (single isomer, unassigned) [Compound 18B] | 100 to 1000 | < 100
28 | O=C(O)c1ccc(-n2ccc3nc([C@H](O)COC4CCC4)cnc32)cc1 [Compound 47B] | < 100 | < 100
29 | CCCC[C@H](O)c1cnc2c(ccn2-c2cccc(-c3nnc[nH]3)c2)n1 [Compound 2A] | < 100 | < 100
30 | O[C@@H](COC1CCC1)c1cnc2c(cnn2-c2ccc(N3CCCC3)cc2)c1 [Compound 75B] | ≥ 1000 | ≥ 1000
31 | C[C@@H](OC1CCC1)[C@@H](O)c1cnc2c(cnn2-c2ccc(C(=O)O)cc2)c1 [Compound 108B] | 100 to 1000 | 100 to 1000
32 | C[S+]([O-])c1ccc(-n2ncc3cc([C@@H](O)COC4CCC4)cnc32)cc1 (some centres unmarked) [Compound 124A] | < 100 | < 100
33 | CC(C)OCC[C@H](O)c1cnc2c(cnn2-c2cccc(-c3nnc[nH]3)c2)c1 [Compound 44B] | 100 to 1000 | < 100
34 | O=C(O)c1ccc(-n2ncc3cc([C@H](O)C4(OCC(F)F)CC4)cnc32)cc1 [Compound 72A] | 100 to 1000 | < 100
35 | CC(C)OCC[C@@H](O)c1cnc2c(cnn2-c2cccc(-c3nnc[nH]3)c2)c1 [Compound 44A] | < 100 | < 100
36 | O=C(O)c1ccc(-n2ncc3cc([C@H](O)COC4CCC4)cnc32)cc1F [Compound 94B] | ≥ 1000 | < 100
37 | CC(C)(O)[C@H](O)c1cnc2c(cnn2-c2cccc(-c3nnc[nH]3)c2)c1 [Compound 33A, (R)-1-(1-(3-(4H-1,2,4-triazol-3-yl)phenyl)-1H-pyrazolo[3,4-b]pyridin-5-yl)-2-methylpropane-1,2-diol] | ≥ 1000 | 100 to 1000
38 | CC(C)OC[C@H](O)c1cnc2c(ccn2-c2cccc(-c3nnc[nH]3)c2)n1 [Compound 20B] | 100 to 1000 | < 100
39 | O[C@H](COC1CC1)c1cnc2c(ccn2-c2cccc(-c3nnc[nH]3)c2)n1 [Compound 38A] | < 100 | < 100
40 | O=C(O)c1ccc(-n2ncc3cc([C@@H](O)COC4CCC4)cnc32)cc1F [Compound 94A] | < 100 | < 100
41 | O[C@H](c1cnc2c(cnn2-c2cccc(-c3nnc[nH]3)c2)c1)C1C2CCCCC21 (some centres unmarked) [Compound 51A] | 100 to 1000 | < 100
42 | O[C@@H](c1cnc2c(cnn2-c2cccc(-c3nnc[nH]3)c2)c1)C1COC1 [Compound 28A] | < 100 | < 100
43 | NC(=O)c1ccc(-n2ncc3cc([C@H](O)COC4CCC4)cnc32)cc1 [Compound 81A] | < 100 | < 100
44 | Cc1cc(-n2ncc3cc([C@@H](O)COC4CCC4)cnc32)ccc1C(=O)O [Compound 95A] | < 100 | < 100
45 | CN(C)C(=O)c1ccc(-n2ncc3cc([C@H](O)COC4CCC4)cnc32)cc1 [Compound 80A] | < 100 | < 100
46 | CSc1ccc(-n2ncc3cc([C@@H](O)COC4CCC4)cnc32)cc1 [Compound 119A] | 100 to 1000 | < 100
47 | Cc1nn(-c2ccc(C(=O)O)cc2)c2ncc([C@H](O)COC3CCC3)cc12 [Compound 109B] | < 100 | < 100
48 | O=C(O)c1ccc(-n2ncc3cc([C@H](O)C4COC4)ccc32)cc1 [Compound 120A] | 100 to 1000 | < 100
49 | CCC1(OC[C@H](O)c2cnc3c(cnn3-c3ccc(C(=O)O)cc3)c2)CC1 [Compound 93A] | 100 to 1000 | < 100
